Data on three compounds can be found in patent EP1350523B1 (priority 1992, dated 1994).

This data set concerns vascular smooth muscle cells. The data set can be described thus: 24 hour 3H-thymidine DNA synthesis inhibition assay compared with 24 hour 3H-leucine protein inhibition assay. Type of data set: cell-based. As to conditions: for therapeutic range (area under the curve of 3H-leucine assay greater than that of 3H-thymidine assay): 24 hour exposure, 5% FBS; for protein synthesis inhibition and cytotoxicity at concentrations where significant DNA synthesis inhibition occurs: Example 8, Figs. 10A-10C.

Procedure: The ability of various therapeutic agents to inhibit DNA synthesis and protein synthesis in vascular smooth muscle cells was tested. ^3H-leucine and ^3H-thymidine uptake and cytotoxicity assays were conducted in accordance with the following protocols.
3H-leucine uptake: Vascular smooth muscle cells at 40,000 cells/ml were seeded in sterile 24 well plates at 1ml/well. The plates were incubated overnight at 37°C, 5% CO2, 95% air in a humidified atmosphere (saturation). Log dilutions of the therapeutic agent of interest were incubated with the vascular smooth muscle cells for 5 minutes or 24 hours. Samples of the therapeutic agents were diluted in DMEM: F-12 media (Whittaker Bioproducts, Walkersville, Maryland) with 5% fetal bovine serum (GBS. Gibco) and 5% Serum Plus® (JRH Biologicals). Following therapeutic agent incubation, the solution was aspirated, and 1ml/well of 0.5 microcurie/ml ^3H-leucine in leucine free DMEM (Dulbecco's Modified Eagle's Medium) with 5% Serum Plus® was added. The plates were re-incubated overnight at 37°C, 5% CO2 in a humidified atmosphere. The cells were visually graded using an inverted microscope using a scoring scale to determine viability and cell number. The 1 to 3 grade is based upon percent of cell viability and number compared to control wells, with 3=100%, 2=70%-100% and 1=0%-70%. A record of this scoring assisted in determining the immediate cytotoxic effect of the therapeutic agents. The media was then aspirated, and the cells were washed twice with cold 5% TCA. 400 microliters of 0.2M NaOH was added per well, and the plates were incubated for two hours at room temperature on a rotating platform. 200 microliters per well of the cell solution was transferred into plastic scintillation vials (Bio-Rad Laboratories), and 4 milliliters of Bio-Safe® II liquid scintillation fluid was added prior to vortexing. Vials were counted on a Beckman LS2800 Liquid Scintillation Counter interfaced with Beckman "Data Capture" software for conversion to a Lotus 1-2-3® file and analysis using Lotus 1-2-3®.
^3H-thymidine uptake: Vascular smooth muscle cells were incubated in complete media with 5% FBS (Gibco) overnight at 37°C in a humidified, 5% CO2 environment in sterile 24 well plates. The media was aspirated from the wells and serum free media supplemented with growth factors (DMEM: F-12 basal media supplemented with growth factor cocktail catalog number I1884 which contains insulin (5 micrograms/ml), transferrin (5 micrograms/ml) and sodium selenite (5 nanograms/ml) available from Sigma Chemical, St. Louis, Missouri) was added. Cells were incubated in this media for 24 hours. For a 5 minute therapeutic agent exposure, log dilutions of the therapeutic agent were incubated with the cells in complete media. After 5 minutes and media aspiration, 1 ml/well of 1.0 microcurie/ml ^3H-thymidine dispersed in complete media was added. The 24 hour exposure involved incubation of the cells with 1 ml/well of 1.0 microcurie/ml of ^3H-thymidine dispersed in complete media and log dilutions of the therapeutic agent being tested. In both exposure trials, the cells were then incubated overnight at 37°C in a humidified, 5% CO2 environment. The cells were visually scored for viability and cell number. […] Vials were counted on a Beckman LS2800 Liquid Scintillation Counter interfaced with Beckman "Data Capture" software for conversion to a Lotus 1-2-3° file and analysis using Lotus 1-2-30®.

As for `O=[N+]([O-])OCC(CO[N+](=O)[O-])O[N+](=O)[O-]` [nitroglycerin], the “therapeutic range (area under the curve of 3H-leucine assay greater than that of 3H-thymidine assay)” value (“therapeutic range” below) is “showed an available therapeutic range”; the “protein synthesis inhibition and cytotoxicity at concentrations where significant DNA synthesis inhibition occurs” value was “minimal protein synthesis inhibition and cytotoxicity”.

Turning to `CN[C@@H]1C[C@H]2O[C@@](C)([C@@H]1OC)n1c3ccccc3c3c4c(c5c6ccccc6n2c5c31)C(=O)NC4` [staurosporin], the “therapeutic range” value is on record as “showed an available therapeutic range”.

In the case of `Cc1ccc(C(=O)Nc2ccc(S(=O)(=O)O)c3cc(S(=O)(=O)O)cc(S(=O)(=O)O)c23)cc1NC(=O)c1cccc(NC(=O)Nc2cccc(C(=O)Nc3cc(C(=O)Nc4ccc(S(=O)(=O)O)c5cc(S(=O)(=O)O)cc(S(=O)(=O)O)c45)ccc3C)c2)c1` [suramin], the “therapeutic range” value was “showed an available therapeutic range”; the “protein synthesis inhibition and cytotoxicity at concentrations where significant DNA synthesis inhibition occurs” value was “minimal protein synthesis inhibition and cytotoxicity”.
